Laboratory results reported in patent publication US9255272B2, “Use of inhibitors of leukotriene B4 receptor BLT2 for treating asthma” (Korea University Research & Business Foundation, priority 2007, dated 2016).

Experiments:
BLT2 mRNA = BLT2 mRNA level in lung of OVA-challenged mice (semiquantitative RT-PCR, real-time PCR); format: in vivo, mouse
Procedure: Female BALB/c mice and C57BL/6 mice (7 weeks old; 18-20 g) were obtained from Orientbion Inc. (Seoungnam, Korea). Sensitization and challenge were carried out as described previously with some modification (28). Briefly, female C57BL/6 mice (7 weeks old; 18-20 g) were immunized by intraperitoneal (i.p.) injection of 200 μg ovalbumin (OVA) emulsified in 2.5 mg of adjuvant aluminum hydroperoxide gel (alum) (Pierce, Rockford, Ill.). A second i.p. injection of 20 μg OVA adsorbed onto alum (2.5 mg) was administered 10 days later. After an additional 10 days, mice were exposed to an aerosol of 1% OVA in saline for 30 min daily on 3 consecutive days. On day 25, mice were finally challenged by provocation with 10% OVA aerosol. […]
(§1) Total RNA was extracted from lung samples using Easy-blue RNA extraction reagent (Intron, Korea). […] For the semiquantitative analysis of transcripts, the optimal PCR conditions were first determined by linear amplification of glyceraldehyde-3-phosphate dehydrogenase (GAPDH). […]
as §1

VCAM-1 = VCAM-1 expression in lung tissue (Western blot); format: in vivo, mouse
Procedure: Female BALB/c mice and C57BL/6 mice (7 weeks old; 18-20 g) were obtained from Orientbion Inc. (Seoungnam, Korea). Sensitization and challenge were carried out as described previously with some modification (28). Briefly, female C57BL/6 mice (7 weeks old; 18-20 g) were immunized by intraperitoneal (i.p.) injection of 200 μg ovalbumin (OVA) emulsified in 2.5 mg of adjuvant aluminum hydroperoxide gel (alum) (Pierce, Rockford, Ill.). A second i.p. injection of 20 μg OVA adsorbed onto alum (2.5 mg) was administered 10 days later. After an additional 10 days, mice were exposed to an aerosol of 1% OVA in saline for 30 min daily on 3 consecutive days. On day 25, mice were finally challenged by provocation with 10% OVA aerosol. For inhibition experiments, sense or antisense BLT2 (1.6 mg/kg) was injected intravenously 24 h and then 1 h before the 10% OVA challenge. The mice were then killed on day 27 to assess asthmatic phenotypes. Antisense BLT2 oligonucleotide (5′-[…]-3′ (SEQ ID NO: 15)), sense BLT2 oligonucleotide (5′-[…]-3′ (SEQ ID NO: 16)).
Alternatively, BALB/c mice were sensitized on day 1 by i.p. injection of 20 μg OVA emulsified in 2.5 mg of alum (Pierce, Rockford, Ill.), followed by an identical booster injection administered on day 14. On days 21, 22 and 23 after initial sensitization, the mice were challenged for 30 min with an aerosol of 1% OVA using an ultrasonic nebulizer. LY255283 (2.5 mg/kg) or vehicle control (DMSO) was administered intravenously 1 h before 1% OVA challenge. Mice were killed on day 25, to assess asthmatic phenotypes. 2′,7′-dichorofluorescein diacetate (DCF-DA) was purchased from Molecular Probes (Eugene, Oreg.). BSA and DMSO were from Sigma-Aldrich (St. Louis, Mo.). Acetyl-methacholine chloride was purchased from Sigma-Aldrich (St. Louis, Mo.). All other chemicals were from standard sources and were of molecular biology grade or higher. […]

## CCc1cc(C(C)=O)c(O)cc1OCCCCCC(C)(C)c1nnn[nH]1 [LY255283, 1-[5-ethyl-2-hydroxy-4-[[6-methyl-6-(1H-tetrazol-5-yl)heptyl]oxy]phenyl]-ethanone, reference compound]
BLT2 mRNA; BALB/c mice, LY255283 2.5 mg/kg i.v. 1 hr before 1% OVA challenge, 48 h after challenge
  level of BLT2 mRNA in the lung: significantly reduced
VCAM-1; LY255283 2.5 mg/kg 1 hr before 1% OVA challenge
  suppression of OVA-induced VCAM-1 induction in lung tissue: −60%

## antisense BLT2: Antisense BLT2 oligonucleotide 5′-GCTCAGTAGTGTCTCATTCC-3′ (SEQ ID NO: 15) (listed as DNA, chemistry not fully specified)
BLT2 mRNA; C57BL/6 mice, 1.6 mg/kg i.v. 24 hr and 1 hr before 10% OVA challenge, 48 hr after challenge
  BLT2 expression in the lung (mRNA): reduced
VCAM-1; antisense BLT2 1.6 mg/kg
  suppression of OVA-induced VCAM-1 induction in lung tissue: −60%

## antisense Rac: phosphorothioate 17-mer to the 5′ end of murine Rac mRNA, 5′-CACTTGATGGCCTGCAT-3′ (SEQ ID NO: 22) (listed as DNA, chemistry not fully specified)
VCAM-1; antisense Rac 1.25 mg/kg, tail vein
  OVA-induced VCAM-1 induction in lung tissue: suppressed this effect
